The source of these data is patent US20260355199A1, “COMPOSITIONS AND METHODS FOR TREATING OR PREVENTING NONALCOHOLIC STEATOHEPATITIS (NASH), ANOREXIA, DEPRESSION, ENDOMETRIOSIS, AND OTHER DISEASES OR DISORDERS” (priority 2022, published 2026).

For experiment [1], the system named is high fat diet (HFD)-induced diabetic mice. Nature of the experiment: Feeding of HFD-induced diabetic mice. To be noted: drinking water, two weeks. The format is in vivo, mouse. The source says: It has previously been shown that TET3 expression is aberrantly elevated in the livers of humans and mice with type 2 diabetes and that liver-specific, siRNA-mediated TET3 knockdown improves glucose homeostasis both in dietary and genetic mouse models of diabetes (Li D. et al., 2020, Nature Communications, 11:342). Bobcat339 (4-Amino-1-[1,1′-biphenyl]-3-yl-5-chloro-2(1H)-pyrimidinone) is a synthetic cytosine derivative capable of binding competitively with 5mC to the active sites of [COMPOUND LEFT OUT] and inhibits their enzymatic activity in cultured neuronal cells (Chua G. N. L. et al., 2019, ACS Medicinal Chemistry Letters, 10:180-185). Although not bound by any particular theory, it was hypothesized that Bobcat339 has an anti-diabetic effect owing to its ability to inhibit [COMPOUND LEFT OUT]. Thus, the present studies employed high fat diet (HFD)-induced diabetic mice that were treated with Bobcat339 in drinking water for two weeks. […] Thus, nondiabetic mice fed on regular chow were treated with Bobcat339 in drinking water. Four days later, ARCs were isolated from ad libitum-fed mice and analyzed. […] In light of these observations, additional studies began to explore [COMPOUND LEFT OUT] in AgRP neurons for a potential role in the control of feeding and energy metabolism.

Another experiment deals with TET3. Nature of the experiment: TET3 protein in mouse peritoneal macrophages. In kind it is cell-based. To be noted: 10 μM. As to the method:
For cultured mouse peritoneal macrophages, cells were primed with 30 ng/ml of TGF-β1 (R&D Systems, 7666-MB0-005) for 48 h (to increase TET3 expression) before Bobcat339 treatment. Bobcat339 (or DMSO) was added at a final concentration of 10 μM, followed by RNA and protein extraction at time points indicated in the figure legends.
Cells were homogenized in situ using a pipette tip in 2×SDS-sample buffer with 10% β-mercaptoethanol at RT followed by heating at 100 °C for 5 min with occasional vortexing. The samples were loaded onto a 4-15% gradient SDS gel (Bio-rad, 456-8086) (10 μL/well) and transferred to nitrocellulose membranes, followed by Western blot analysis. The antibodies used were anti-TET3 (diluted at 1:1000, GeneTex, GTX121453 for human; diluted at 1:1000, Active Motif, 61395 for mouse), anti-TET2 (diluted at 1:1000, Proteintech, 21207-1-AP for human/mouse), anti-TGF-β1 (diluted at 1:1000, Abcam, ab215715 for human), anti-Lin28A (diluted at 1:1000, Cell Signaling, 3978S), and HRP-conjugated anti-GAPDH (dilution 1:5000; Proteintech, HRP-60004). The secondary antibody was HRP-linked Anti-rabbit IgG (dilution 1:10,000; Rockland, 611-1322).

In the next experiment the test system is TET2. As to conditions: cited from earlier work.

Structures are written as SMILES.

In the case of `Nc1nc(=O)n(-c2cccc(-c3ccccc3)c2)cc1Cl` [Bobcat339, 4-Amino-1-[1,1′-biphenyl]-3-yl-5-chloro-2(1H)-pyrimidinone], the feeding result in experiment [1] was “became hyperphagic”. The TET3 protein result in the experiment with TET3 is recorded as “downregulated”. Further, the “inhibitory activity against TET2” value with TET2 (in the absence of contaminating copper (II)) is reported as “negligible inhibitory activity”. Also, the “inhibition of enzymatic activity of TET2” value with TET2 (initially reported) is listed as “inhibit the enzymatic activity”.
